Assay [1] concerns Plasmodium falciparum. Description: Increase in Pgh1 expression in chloroquine-resistant Plasmodium falciparum R1H6/2 by Western blot relative to untreated control. In kind it is functional. On the technique in general: In western blotting, separated proteins are transferred to a membrane and probed.
Assay [2] relates to Plasmodium falciparum. Description: Increase in Pgh1 expression in chloroquine-sensitive Plasmodium falciparum K1AM by Western blot relative to untreated control. Type of assay: functional.
Assay [3] concerns Plasmodium falciparum. Description: Increase in Pgh1 expression chloroquine-sensitive Plasmodium falciparum K1Hf by Western blot relative to untreated control. In kind it is functional.
Assay [4] relates to Plasmodium falciparum. Description: Increase in PfCRT expression in chloroquine-resistant Plasmodium falciparum R1H6/2 by Western blot relative to untreated control. In kind it is functional, organism-based.
Assay [5] relates to Plasmodium falciparum. Description: Increase in PfCRT expression in chloroquine-sensitive Plasmodium falciparum K1AM by Western blot relative to untreated control. In kind it is functional, organism-based.
In assay [6] the test system is Plasmodium falciparum. Description: Increase in PfCRT expression chloroquine-sensitive Plasmodium falciparum K1Hf by Western blot relative to untreated control. Type of assay: functional, organism-based.

One molecule from ChEMBL document CHEMBL1255275, “Drug-regulated expression of Plasmodium falciparum P-glycoprotein homologue 1: a putative role for nuclear receptors” (Antimicrob Agents Chemother, 2008) can be followed below.

Calls of active or inactive are those of the source. The calls are words filed in the database; no cut-off is given here.

Turning to `CCC1(c2ccccc2)C(=O)NC(=O)NC1=O` [PHENOBARBITAL], the “fold change (FC)” value in the assay with Plasmodium falciparum [1] was found to be 6.4; with Plasmodium falciparum [2], 4.7; in the assay on Plasmodium falciparum [3], 5.4. For the same molecule, the outcome with Plasmodium falciparum [4], in the assay on Plasmodium falciparum [5] and in the assay with Plasmodium falciparum [6] was inactive.
